The text below walks through data of US11312705B2, “Heteroaryl[4,3-C]pyrimidine-5-amine derivative, preparation method therefor, and medical uses thereof” (Jiangsu Hengrui Medicine Co., Ltd., priority 2017, dated 2022).

Holding throughout (format): cell-based
The target in test [1] is adenosine A1 receptor (A1R) (Homo sapiens (Human), UniProt P30542). Briefly: Inhibition of adenosine A1 receptor cAMP signaling pathway (HTRF cAMP, CHO-K1/A1R cells). The note with it: Table 2. The source says: (§1) Test Example 1. Determination of the inhibition activity of the compounds of the present invention on the adenosine A2a receptor (A2aR) cAMP signaling pathway, the adenosine A2b receptor (A2bR) cAMP signaling pathway, the adenosine A1 receptor (A1R) cAMP signaling pathway and the adenosine A3 receptor (A3R) cAMP signaling pathway.
(§2) The inhibition activity of the compounds of the present invention on the adenosine A2a receptor cAMP signaling pathway, the adenosine A2b receptor cAMP signaling pathway, the adenosine A1 receptor cAMP signaling pathway and the adenosine A3 receptor cAMP signaling pathway was determined by the following method. The experimental method is briefly described as follows:
2.2 Adenosine A1 receptor
(§3) CHO-K1/A1R cells were cultured in DMEM/F12 medium containing 10% fetal bovine serum and 1 mg/ml G418. The cells were digested with the cell separation buffer during the experiment. The cells were then resuspended in the balanced salt buffer containing 20 mM HEPES and 0.1% bovine serum albumin and counted, and the cell density was adjusted to 5×10^5 cells/ml. In the 384-well plate, each well was added with 12.5 μl of cell suspension, and 6.25 μl of test compound (4× concentration) formulated with the balanced salt buffer containing 20 mM HEPES, 0.1% bovine serum albumin, 54 μM rolipram and 2.7 U/ml adenosine deaminase, and the plate was incubated at room temperature for 30 minutes. Each well was then added with 6.25 μl of forskolin and N6-cyclopentyladenosine (4× concentration) formulated with the balanced salt buffer containing 20 mM HEPES, 0.1% bovine serum albumin, 54 μM rolipram and 2.7 U/ml adenosine deaminase, and the plate was incubated at room temperature for 30 minutes. The final concentrations of the compounds were: 100000, 10000, 1000, 100, 10, 1, 0.1 and 0 nM. The final concentration of forskolin was 10 μM. The final concentration of CPA was 10 nM. Intracellular cAMP concentration was detected with the cAMP dynamic 2 kit. cAMP-d2 and Anti-cAMP-Eu-Cryptate were diluted respectively with the cAMP lysis buffer at a ratio of 1:4. Each well was added with 12.5 μl of diluted cAMP-d2, followed by addition of 12.5 μl of diluted Anti-cAMP-Eu-Cryptate, and the plate was incubated at room temperature in the dark for 1 hour. The HTRF signal values were read by the PHERAstar multi-function microplate reader.

Test [2] addresses adenosine A3 receptor (A3R) (Homo sapiens (Human), UniProt P0DMS8). The experiment in a line: Inhibition of adenosine A3 receptor cAMP signaling pathway (HTRF cAMP, CHO-K1/A3R cells). The note with it: Table 2.
Description: as §1, §2
2.3 Adenosine A3 receptor
as §3, with “CHO-K1/A3R cells were” for “CHO-K1/A1R cells were”, “serum and 10 μg/ml puromycin. The cells” for “serum and 1 mg/ml G418. The cells”, “cells were resuspended in” for “cells were then resuspended in”, “forskolin and 2Cl-IB-MECA (4× concentration)” for “forskolin and N6-cyclopentyladenosine (4× concentration)”, “concentration of 2Cl-IB-MECA was 5” for “concentration of CPA was 10”, “2Cl-IB-MECA was 5 nM. Intracellular” for “CPA was 10 nM. Intracellular”

Test [3] concerns the target adenosine A2b receptor (A2bR) (Homo sapiens (Human), UniProt P29275). Briefly: Inhibition of adenosine A2b receptor cAMP signaling pathway (HTRF cAMP, CHO-K1/A2bR cells). To be noted: Table 3. The method, boiled down: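 CHO-K1 cells expressing human A2bR were preincubated with compound (0-100000 nM final) for 30 min at room temperature in HEPES/BSA buffer with rolipram and adenosine deaminase. They were then stimulated with 1 μM […] for 30 min. Intracellular cAMP was measured by HTRF after 1 h detection.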
On the technique in general: In TR-FRET formats the signal depends on donor and acceptor labels being close together.

The target of test [4] is adenosine A2a receptor (A2aR) (Homo sapiens (Human), UniProt P29274). The experiment in a line: Inhibition of adenosine A2a receptor cAMP signaling pathway (HTRF cAMP, CHO-K1/A2aR cells). The method, boiled down:
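CHO-K1 cells expressing human A2aR, preincubated 30 min at room temperature with compound (10000–0.001024 nM final) in HEPES/BSA buffer with rolipram and adenosine deaminase, then stimulated 30 min with […] (20 nM final). Intracellular cAMP read by HTRF after 1 h lysis/detection.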

Some results are limits rather than exact numbers.

Sequence of adenosine A2a receptor (A2aR) (P29274 whole entry): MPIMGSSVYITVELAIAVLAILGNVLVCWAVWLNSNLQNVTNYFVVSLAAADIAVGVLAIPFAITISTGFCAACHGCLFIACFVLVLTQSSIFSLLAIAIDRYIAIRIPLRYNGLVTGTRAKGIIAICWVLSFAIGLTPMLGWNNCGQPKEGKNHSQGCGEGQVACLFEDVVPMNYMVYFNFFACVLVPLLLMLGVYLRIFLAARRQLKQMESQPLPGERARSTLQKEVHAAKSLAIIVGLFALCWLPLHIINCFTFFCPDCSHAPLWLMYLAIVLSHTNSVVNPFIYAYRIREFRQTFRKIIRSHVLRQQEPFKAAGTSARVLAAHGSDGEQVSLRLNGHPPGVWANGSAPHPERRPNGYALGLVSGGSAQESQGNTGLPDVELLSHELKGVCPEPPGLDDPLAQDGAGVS
Sequence of adenosine A1 receptor (A1R) (P30542 whole entry): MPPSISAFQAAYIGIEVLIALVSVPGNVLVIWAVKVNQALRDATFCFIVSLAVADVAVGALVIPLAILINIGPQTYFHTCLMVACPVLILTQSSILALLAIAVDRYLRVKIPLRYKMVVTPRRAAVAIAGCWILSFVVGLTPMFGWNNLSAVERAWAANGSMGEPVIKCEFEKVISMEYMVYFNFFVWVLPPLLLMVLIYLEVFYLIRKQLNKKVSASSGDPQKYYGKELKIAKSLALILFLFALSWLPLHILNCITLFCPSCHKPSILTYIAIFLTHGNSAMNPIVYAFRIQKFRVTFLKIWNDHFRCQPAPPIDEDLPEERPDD
Sequence of adenosine A2b receptor (A2bR) (P29275 whole entry): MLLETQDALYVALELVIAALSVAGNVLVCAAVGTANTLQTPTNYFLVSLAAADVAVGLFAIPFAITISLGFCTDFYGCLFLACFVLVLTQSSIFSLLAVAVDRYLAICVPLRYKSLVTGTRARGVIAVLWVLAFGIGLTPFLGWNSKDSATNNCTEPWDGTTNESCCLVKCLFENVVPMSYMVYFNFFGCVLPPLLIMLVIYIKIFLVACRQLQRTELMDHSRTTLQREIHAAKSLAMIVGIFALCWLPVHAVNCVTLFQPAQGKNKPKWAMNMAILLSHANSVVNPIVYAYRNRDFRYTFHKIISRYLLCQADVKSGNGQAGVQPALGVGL
Sequence of adenosine A3 receptor (A3R) (P0DMS8 whole entry): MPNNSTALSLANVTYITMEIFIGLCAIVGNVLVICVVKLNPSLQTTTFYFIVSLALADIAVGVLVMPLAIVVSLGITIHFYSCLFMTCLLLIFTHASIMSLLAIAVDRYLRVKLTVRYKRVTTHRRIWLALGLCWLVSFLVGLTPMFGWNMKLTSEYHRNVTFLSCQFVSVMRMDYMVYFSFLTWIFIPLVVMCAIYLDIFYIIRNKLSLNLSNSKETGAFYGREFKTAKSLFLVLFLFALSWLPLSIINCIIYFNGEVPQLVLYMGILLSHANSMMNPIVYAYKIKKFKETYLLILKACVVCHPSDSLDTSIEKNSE

The IC50 is the concentration at which inhibition is half-maximal. Higher therefore signals a need for much substance. Consider `Cc1cc(-c2c(-c3ccc(Cl)cc3F)nc(N)n3cnnc23)cc(C(F)F)n1` [Example 59, 7-(4-Chloro-2-fluorophenyl)-8-(2-(difluoromethyl)-6-methylpyridin-4-yl)-[1,2,4]triazolo[4,3-c]pyrimidin-5-amine], for which the 50% inhibitory concentration (IC50) was 1010 nM in test [1] (CHO-K1/A1R cells, forskolin 10 μM, CPA 10 nM, cAMP HTRF); > 10000 nM in test [2] (CHO-K1/A3R cells, forskolin 10 μM, 2Cl-IB-MECA 5 nM, cAMP HTRF); 884 nM in test [3] (CHO-K1/A2bR cells, ethyl carbazole 1 μM, cAMP HTRF); 3.05 nM in test [4] (Table 1, ethyl carbazole 20 nM); 3.05 nM in test [4] (Table 2, ethyl carbazole 20 nM); 3.05 nM in test [4] (Table 3, ethyl carbazole 20 nM). In test [1] (selectivity A1R over A2aR), the “IC50 ratio (A1R/A2aR)” value was determined as 330. Further, the “IC50 ratio (A3R/A2aR)” value in test [2] is on record as >10^3. The “IC50 ratio (A2bR/A2aR)” value in test [3] (selectivity A2bR over A2aR) is 290.
